Reference: patent publication US12077503B2, “Substituted cyclic amides and their use as herbicides” (FMC CORPORATION, priority 2015, dated 2024)

Assays:
Assay type in all cases: in vivo
[1] = system: velvetleaf (Abutilon theophrasti); experiment: Test G Pre-Emergence Protocol; conditions: Abutilon theophrasti, pre-emergence, 312 h, evaluated after 13 days; for pest or weed control at 15.625 g/ha: 15.625 g ai/ha; for pest or weed control at 15.625 g/ha / pest or weed control at 250 g/ha: read-out: Velvetleaf damage rating (100=total damage to plant; 0=no damage to plant); for pest or weed control at 62.5 g/ha: 62.5 g ai/ha, 100=total damage to plant, 0=no damage to plant, read-out: Velvetleaf damage rating; for pest or weed control at 250 g/ha: 250 g ai/ha
Procedure, shortened: (§1)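 Seeds were sown in standard soil and kept one day in a glasshouse (24/16° C day/night, 14 h light, 65% humidity), then sprayed with compound in acetone/water (50:50) containing 0.5% Tween 20 at 15.625, 62.5 or 250 g/ha. Damage was scored after 13 days (0 = none, 100 = total).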

[2] = system: giant foxtail (Setaria faberi); experiment: Test G Pre-Emergence Protocol; conditions: Setaria faberi, pre-emergence, 312 h, evaluated after 13 days; for pest or weed control at 15.625 g/ha: 15.625 g ai/ha; for pest or weed control at 15.625 g/ha / pest or weed control at 250 g/ha: read-out: Foxtail, Giant damage rating (100=total damage to plant; 0=no damage to plant); for pest or weed control at 62.5 g/ha: 62.5 g ai/ha, 100=total damage to plant, 0=no damage to plant, read-out: Foxtail, Giant damage rating; for pest or weed control at 250 g/ha: 250 g ai/ha
Procedure, shortened: as §1

[3] = system: barnyardgrass (Echinochloa crus-galli); experiment: Test G Pre-Emergence Protocol; conditions: Echinochloa crus-galli, pre-emergence, 312 h, evaluated after 13 days; for pest or weed control at 15.625 g/ha: 15.625 g ai/ha; for pest or weed control at 15.625 g/ha / pest or weed control at 250 g/ha: read-out: Barnyardgrass damage rating (100=total damage to plant; 0=no damage to plant); for pest or weed control at 62.5 g/ha: 62.5 g ai/ha, 100=total damage to plant, 0=no damage to plant, read-out: Barnyardgrass damage rating; for pest or weed control at 250 g/ha: 250 g ai/ha
Procedure, shortened: as §1

[4] = system: redroot pigweed (Amaranthus retroflexus); experiment: Test G Pre-Emergence Protocol; conditions: Amaranthus retroflexus, pre-emergence, 312 h, evaluated after 13 days; for pest or weed control at 15.625 g/ha: 15.625 g ai/ha; for pest or weed control at 15.625 g/ha / pest or weed control at 250 g/ha: read-out: Pigweed, Redroot damage rating (100=total damage to plant; 0=no damage to plant); for pest or weed control at 62.5 g/ha: 62.5 g ai/ha, 100=total damage to plant, 0=no damage to plant, read-out: Pigweed, Redroot damage rating; for pest or weed control at 250 g/ha: 250 g ai/ha
Procedure, shortened: as §1

corn (Zea mays) [5] = experiment: Test G Pre-Emergence Protocol; conditions: Zea mays, pre-emergence, 312 h, evaluated after 13 days; for plant injury at 15.625 g/ha: 15.625 g ai/ha; for plant injury at 15.625 g/ha / plant injury at 250 g/ha: read-out: Corn damage rating (100=total damage to plant; 0=no damage to plant); for plant injury at 62.5 g/ha: 62.5 g ai/ha, 100=total damage to plant, 0=no damage to plant, read-out: Corn damage rating; for plant injury at 250 g/ha: 250 g ai/ha
Procedure, shortened: as §1

[6] = system: ivy-leaved morning glory (Ipomoea hederacea); experiment: Test G Pre-Emergence Protocol; conditions: Ipomoea, pre-emergence, 312 h, evaluated after 13 days; for pest or weed control at 15.625 g/ha: 15.625 g ai/ha; for pest or weed control at 15.625 g/ha / pest or weed control at 250 g/ha: read-out: Morningglory, Ivy-leaved damage rating (100=total damage to plant; 0=no damage to plant); for pest or weed control at 62.5 g/ha: 62.5 g ai/ha, 100=total damage to plant, 0=no damage to plant, read-out: Morningglory, Ivy-leaved damage rating; for pest or weed control at 250 g/ha: 250 g ai/ha
Procedure, shortened: as §1

[7] = system: velvetleaf (Abutilon theophrasti); experiment: Test G Post-Emergence Protocol; conditions: Abutilon theophrasti, post-emergence, 312 h, read-out: Velvetleaf damage rating; for pest or weed control at 15.625 g/ha: 15.625 g ai/ha, evaluated after 13 days (100=total damage to plant; 0=no damage to plant); for pest or weed control at 62.5 g/ha: 62.5 g ai/ha; for pest or weed control at 62.5 g/ha / pest or weed control at 250 g/ha: evaluated after 13 days, 100=total damage to plant, 0=no damage to plant; for pest or weed control at 250 g/ha: 250 g ai/ha
Procedure, shortened: (§2)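 Seedlings grown 8 days in soil in a glasshouse (24/16 °C day/night, 14 h light, 65% humidity) were sprayed post-emergence with compound in acetone/water 50:50 plus 0.5% Tween 20 at 15.625, 62.5 or 250 g/ha. Damage was scored after 13 days on a 0–100 scale (100 = total damage).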

[8] = system: giant foxtail (Setaria faberi); experiment: Test G Post-Emergence Protocol; conditions: Setaria faberi, post-emergence, 312 h, read-out: Foxtail, Giant damage rating; for pest or weed control at 15.625 g/ha: 15.625 g ai/ha, evaluated after 13 days (100=total damage to plant; 0=no damage to plant); for pest or weed control at 62.5 g/ha: 62.5 g ai/ha; for pest or weed control at 62.5 g/ha / pest or weed control at 250 g/ha: evaluated after 13 days, 100=total damage to plant, 0=no damage to plant; for pest or weed control at 250 g/ha: 250 g ai/ha
Procedure, shortened: as §2

[9] = system: barnyardgrass (Echinochloa crus-galli); experiment: Test G Post-Emergence Protocol; conditions: Echinochloa crus-galli, post-emergence, 312 h, read-out: Barnyardgrass damage rating; for pest or weed control at 15.625 g/ha: 15.625 g ai/ha, evaluated after 13 days (100=total damage to plant; 0=no damage to plant); for pest or weed control at 62.5 g/ha: 62.5 g ai/ha; for pest or weed control at 62.5 g/ha / pest or weed control at 250 g/ha: evaluated after 13 days, 100=total damage to plant, 0=no damage to plant; for pest or weed control at 250 g/ha: 250 g ai/ha
Procedure, shortened: as §2

[10] = system: redroot pigweed (Amaranthus retroflexus); experiment: Test G Post-Emergence Protocol; conditions: Amaranthus retroflexus, post-emergence, 312 h, read-out: Pigweed, Redroot damage rating; for pest or weed control at 15.625 g/ha: 15.625 g ai/ha, evaluated after 13 days (100=total damage to plant; 0=no damage to plant); for pest or weed control at 62.5 g/ha: 62.5 g ai/ha; for pest or weed control at 62.5 g/ha / pest or weed control at 250 g/ha: evaluated after 13 days, 100=total damage to plant, 0=no damage to plant; for pest or weed control at 250 g/ha: 250 g ai/ha
Procedure, shortened: as §2

corn (Zea mays) [11] = experiment: Test G Post-Emergence Protocol; conditions: Zea mays, post-emergence, 312 h, read-out: Corn damage rating; for plant injury at 15.625 g/ha: 15.625 g ai/ha, evaluated after 13 days (100=total damage to plant; 0=no damage to plant); for plant injury at 62.5 g/ha: 62.5 g ai/ha; for plant injury at 62.5 g/ha / plant injury at 250 g/ha: evaluated after 13 days, 100=total damage to plant, 0=no damage to plant; for plant injury at 250 g/ha: 250 g ai/ha
Procedure, shortened: as §2

[12] = system: ivy-leaved morning glory (Ipomoea hederacea); experiment: Test G Post-Emergence Protocol; conditions: Ipomoea, post-emergence, 312 h, read-out: Morningglory, Ivy-leaved damage rating; for pest or weed control at 15.625 g/ha: 15.625 g ai/ha, evaluated after 13 days (100=total damage to plant; 0=no damage to plant); for pest or weed control at 62.5 g/ha: 62.5 g ai/ha; for pest or weed control at 62.5 g/ha / pest or weed control at 250 g/ha: evaluated after 13 days, 100=total damage to plant, 0=no damage to plant; for pest or weed control at 250 g/ha: 250 g ai/ha
Procedure, shortened: as §2

Row | SMILES | pest or weed control at 15.625 g/ha [1] | pest or weed control at 62.5 g/ha [1] | pest or weed control at 250 g/ha [1] | pest or weed control at 15.625 g/ha [2] | pest or weed control at 62.5 g/ha [2] | pest or weed control at 250 g/ha [2] | pest or weed control at 15.625 g/ha [3] | pest or weed control at 62.5 g/ha [3] | pest or weed control at 250 g/ha [3] | pest or weed control at 15.625 g/ha [4] | pest or weed control at 62.5 g/ha [4] | pest or weed control at 250 g/ha [4] | plant injury at 15.625 g/ha (corn (Zea mays) [5]) | plant injury at 62.5 g/ha (corn (Zea mays) [5]) | plant injury at 250 g/ha (corn (Zea mays) [5]) | pest or weed control at 15.625 g/ha [6] | pest or weed control at 62.5 g/ha [6] | pest or weed control at 250 g/ha [6] | pest or weed control at 15.625 g/ha [7] | pest or weed control at 62.5 g/ha [7] | further results
1 | CN1C[C@H](c2cccc(C(F)(F)F)c2)[C@@H](C(=O)Nc2ccc3cccnc3n2)C1=O (racemic) [Compound 1676] | 0% | 0% | 0% | 0% | 0% | 0% | 0% | 0% | 0% | 0% | 0% | 0% | 0% | 0% | 0% | 0% | 0% | 0% | 0% | 0% | pest or weed control at 250 g/ha [7]: 0%; pest or weed control at 15.625 g/ha [8]: 0%; pest or weed control at 62.5 g/ha [8]: 0%; pest or weed control at 250 g/ha [8]: 0%; pest or weed control at 15.625 g/ha [9]: 0%; pest or weed control at 62.5 g/ha [9]: 0%; pest or weed control at 250 g/ha [9]: 0%; pest or weed control at 15.625 g/ha [10]: 0%; pest or weed control at 62.5 g/ha [10]: 0%; pest or weed control at 250 g/ha [10]: 0%; plant injury at 15.625 g/ha (corn (Zea mays) [11]): 0%; plant injury at 62.5 g/ha (corn (Zea mays) [11]): 0%; plant injury at 250 g/ha (corn (Zea mays) [11]): 0%; pest or weed control at 15.625 g/ha [12]: 0%; pest or weed control at 62.5 g/ha [12]: 0%; pest or weed control at 250 g/ha [12]: 0%
2 | CN1C[C@@H](c2cccc(C(F)(F)F)c2)[C@H](C(=O)Nc2cccc(F)n2)C1=O [Compound 1817] | 0% | 0% | 0% | 0% | 0% | 10% | 0% | 0% | 0% | 0% | 0% | 0% | 0% | 0% | 0% | 0% | 0% | 0% | 0% | 0% | pest or weed control at 250 g/ha [7]: 0%; pest or weed control at 15.625 g/ha [8]: 0%; pest or weed control at 62.5 g/ha [8]: 0%; pest or weed control at 250 g/ha [8]: 0%; pest or weed control at 15.625 g/ha [9]: 0%; pest or weed control at 62.5 g/ha [9]: 0%; pest or weed control at 250 g/ha [9]: 0%; pest or weed control at 15.625 g/ha [10]: 0%; pest or weed control at 62.5 g/ha [10]: 0%; pest or weed control at 250 g/ha [10]: 0%; plant injury at 15.625 g/ha (corn (Zea mays) [11]): 0%; plant injury at 62.5 g/ha (corn (Zea mays) [11]): 0%; plant injury at 250 g/ha (corn (Zea mays) [11]): 0%; pest or weed control at 15.625 g/ha [12]: 0%; pest or weed control at 62.5 g/ha [12]: 0%; pest or weed control at 250 g/ha [12]: 0%
